Measured values taken from patent EP0037049A1, “Biphenylyl-imidazolylethane derivatives, process for their preparation and medicaments containing them” (BAYER AG, priority 1980, dated 1981).

Tested on: Dermatophyten, Schimmelpilze, Hefen
Assay: Antifungal in-vitro activity, serial dilution test
Format: cell-based
Settings: incubation at 28°C, 24 h for yeasts, 96 h for dermatophytes and moulds, activity stated to be superior to prior-art compounds (A), (B), (C) and (D)
Description: Die in-vitro-Prüfung wurde im Reihenverdünnungstest mit Keiminokula von durchschnittlich […] Substrat durchgeführt. Als Nährmedium dienten • a) für Dermatophyten und Schimmelpilze: Sabourand's milieu d'epresive • b) für Hefen: • Isotonic Sensitest-Broth von Oxid.
Die Bebrütungstemperatur betrug 28°C; Bebrütungsdauer war 24 Stunden bei Hefen und 96 Stunden bei Dermatophyten und Schimmelpilzen.

Compound | Antimykotische in-vitro-Wirksamkeit (Wirkung)
Clc1ccccc1C(Cn1ccnc1)c1ccc(-c2ccccc2)cc1 (stereo not shown) [Beispiel 5] | sehr gute Wirkung
Clc1ccc(-c2ccc(C(Cn3cncn3)c3ccccc3Cl)cc2)cc1 (stereo not shown) [Beispiel 8] | sehr gute Wirkung
Fc1ccccc1C(Cn1ccnc1)c1ccc(-c2ccccc2)cc1 (stereo not shown) [Beispiel 6] | sehr gute Wirkung
Clc1cccc(C(Cn2ccnc2)c2ccc(-c3ccccc3)cc2)c1 (stereo not shown) [Beispiel 7] | sehr gute Wirkung
